The experiment concerns p5xGTTI-Luc+ luciferase reporter in BHK 21 cells. The experiment in a line: Repression of luciferase reporter activated by constitutive GAL4-VP16, transient transfection of BHK 21 cells (Example 2). The conditions noted are these: 100 ng/ml dox. Type of experiment: cell-based, hamster. The method, then:
Baby hamster kidney 21 (BHK 21) cells were cultivated in DMEM (Gibco-BRL) supplemented with 10% FCS (Gibco-BRL). For transfectiors, cells were seeded in 24 well plates at about 40% confluency and allowed to attach to the surface. After washing with PBS, cells were exposed to the transfection mix for 4 hours. Thereafter, the transfection mix was replaced by medium which contained, where indicated, 100 ng/ml doxycycline hydrochloride (Sigma #D9891). Generally, medium was replaced every 24 hours and cells were harvested 48 hours post-transfection.
For luciferase and β-galactosidase measurements, cell extracts were prepared as follows. […] After a delay of 2 sec light emission was measured for 2 sec.
Colorimetric determination of β-galactosidase activity was performed by adding 150 μl CPRG buffer (60 mM Na2HPO4 7 H2O, 40 mM NaH2PO4, 10 mM KCl, 1 mM MgSO4, 50 mM β-mercaptoethanol) and 20 μl CPRG solution (Boehringer Mannheim #884308, 4 mg/ml in H2O) to the remaining 30 μl cell extract in the 96 well plate. […] Absorbance was measured at 575 nm in a plate reader (Spectramax 340, Molecular Devices) and samples were normalized to wells in which lysis buffer was assayed.
Relative light units were calculated by normalizing luciferase for β-galactosidase activity. […]
In general terms: In a reporter assay the amount or activity of a reporter protein is the signal.

Regarding `C[C@H]1c2cccc(O)c2C(=O)C2=C(O)[C@]3(O)C(=O)C(C(N)=O)=C(O)[C@@H](N(C)C)[C@@H]3[C@@H](O)[C@@H]21.Cl` [dox, doxycycline hydrochloride], the “effect of addition of the dox ligand on repression” value is “abolished the repression”.

Values taken from patent US6340741B1, “Potent genetic switch allowing regulated gene expression in eukaryotic cells” (University of Lausanne, priority 1998, dated 2002).
